In patent US20070277254A1, “Method for Increasing Ploidy in a Plant” (priority 2003, published 2007):
Read-outs that look alike come from different tables or passages of the source.

Tests used:
[1] = tested on: apical buds of budded plants; test: Ploidy increase in buds treated with colchicine, stomata on leaves counted per unit area and compared to the parent; type: in vivo; conditions: twice daily for five days minimum
Protocol: Firstly, the plants are budded (on a selected root stock), then they are held in a dormant state and the appropriate chill requirement is given in a cool room (if required). The plants are then removed to a warm environment to prime the bud (which is still dormant). This is continued up to the point at which dormancy is “broken”, cell division is commenced. The bud is then wrapped in absorbent substance, the absorbent material is injected with a 1% aqueous solution of the colchicine drug. Note that this is 10× higher concentration than normal treatments. A plastic surround is used to enclose the bud, to keep it moist but exposed to the drug. This treatment is repeated twice daily for five days minimum.
In a next step, to determine whether a ploidy increase has resulted, the stomata on leaves are counted per unit area and compared to the parent. Unexpectedly, it is observed that between 10-20% of the apical buds have their ploidy level increased as a result of this process (compared with only approx 1% in normal techniques). Thus, for example, in citrus, plant leaves become shorter, thicker, wider and oil glands become more prominent.

[2] = tested on: apical buds of budded plants; conditions: normal techniques (comparison; about 10x lower colchicine concentration); cited from earlier work

COc1cc2c(c(OC)c1OC)-c1ccc(OC)c(=O)cc1[C@@H](NC(C)=O)CC2 [colchicine]
apical buds having their ploidy level increased ([1]; 1% aqueous solution of colchicine injected into absorbent wrap around bud at break of dormancy): 10-20%
effect on original growing point (main bud) ([1]; 1% aqueous solution of colchicine): generally killed
apical buds having their ploidy level increased [2]: approx 1%
